According to PMC4339681, “2- and 3-substituted imidazo[1,2-a]pyrazines as inhibitors of bacterial type IV secretion” (Bioorganic & Medicinal Chemistry, 2014):
Read-outs that look alike come from different tables or passages of the source.

What was measured:
VirB11 ATPase HP0525 [1] = biological target: T1, VirB11 ATPase HP0525 (Helicobacter pylori, UniProt Q7BK04); test: colorimetric in vitro ATPase assay (release of inorganic phosphate), IC50 estimation; type: biochemical; conditions: for inhibitory activity in words: ATPase assay
Description: The HP0525 protein was produced recombinantly in Escherichia coli and purified to high purity as described previously.[10] The ATPase activity of HP0525 was measured by monitoring the release of inorganic phosphate (Pi) using an in vitro ATPase assay (see Section 4 and SI). Initially, the inhibitory effects of the compounds were evaluated by performing the ATPase assay with and without compound present at concentrations of 500 μM (or 250 μM), 50 μM and 5 μM (data not shown). The compounds with inhibitory activities were further analyzed for dose-dependency by estimating their IC50s (Fig. 2).
(§1) Assays for the activity of the HP0525 inhibitors were performed using a colorimetric ATPase assay (Innova Biosciences), see SI for details. The enzymatic reactions were performed in 96-well format for 30 min at 37 °C followed by measuring the absorbance at 620 nm, detecting the presence of inorganic phosphate product. […] Michaelis–Menten kinetics were performed under the same conditions as above but with various concentrations of ATP ranging from 0 to 500 μM, with and without 10 μM of compound 11. Both IC50 and Michaelis–Menten kinetics measurements were made in triplicate.
ATPase activity measurements were carried out using a colorimetric in vitro ATPase assay kit (Innova Biosciences), using 96-well ELISA microplates (Greiner Bio-One) with reaction volumes of 100 µL in each well. Multi-pipettes with either 8 tips or 96 tips were used. Enzymatic reactions were performed for 30 min at 37 °C followed by measuring the absorbance at 620 nm, detecting the presence of inorganic phosphate product. Each reaction contained 100 mM Tris–HCl, pH 7.5; 2.5 mM MgCl2; 125 μM ATP; 5% DMSO; 25 mM NaCl; 0.5 mM DTT and 0.053 μM HP0525, with or without inhibitor. In detail, the assay can be described in steps. Step 1: 48 μL of substrate buffer mix (providing the components Tris–HCl, pH 7.5; MgCl2; ATP and DMSO) was dispensed to each well. Step 2: 2 μL of compound (solublized in DMSO) was added to corresponding well. Step 3: Enzymatic reaction was started by the addition of 50 μL of protein (in 50 mM Tris-HCl, pH 7.5; 50 mM NaCl and 1 mM DTT) to the wells. Step 4: Reaction plates were incubated at 37 degrees for 30 min. Step 5: The reaction was stopped by the addition of 25 uL of Gold mix reagent, followed by vigorous mixing. After 2-5 min, 10 uL of stabilizer solution was added to the reaction. Step 6: After an additional 30 min incubation at room temperature, the absorbance at 620 nm was measured using a microplate reader.
In the negative control, the protein was added after the Gold mix, as described in the standard protocol of the Innova Biociences ATPase assay kit. As an alternative negative control, providing equivalent readouts, 10 mM EDTA could also be added at Step 2, then removing the catalytically essential Mg ions from the active site of HP0525.
(§2) Michaelis-Menten kinetics were performed under the same conditions as above but with various concentrations of ATP ranging from 0 to 500 μM, with and without 10 μM of compound 11. Negative controls for each ATP concentration were used. GraphPad Prism version 5.0d for Mac OS X (GraphPad Software, San Diego California USA, www.graphpad.com) was used for the IC50 calculations using the Prism equation for non-linear normalized dose-response ‘Log(Inhibitor) vs. normalized response’ with Hill slope set to 1; and for Michaelis-Menten and Lineweaver-Burk analysis.

VirB11 ATPase HP0525 [2] = biological target: T1, VirB11 ATPase HP0525; test: steady-state (Michaelis–Menten / Lineweaver–Burk) kinetics, mode of inhibition; type: biochemical; conditions: ATP 0 to 500 μM, with and without 10 μM of compound
Description: as §1, §2

[3] = 125 μM ATP, 0.053 μM HP0525, 5% DMSO, pH 7.5, 30 min at 37 °C, triplicate, read-out: IC50

T1 sequence (Q7BK04 entry or part of it): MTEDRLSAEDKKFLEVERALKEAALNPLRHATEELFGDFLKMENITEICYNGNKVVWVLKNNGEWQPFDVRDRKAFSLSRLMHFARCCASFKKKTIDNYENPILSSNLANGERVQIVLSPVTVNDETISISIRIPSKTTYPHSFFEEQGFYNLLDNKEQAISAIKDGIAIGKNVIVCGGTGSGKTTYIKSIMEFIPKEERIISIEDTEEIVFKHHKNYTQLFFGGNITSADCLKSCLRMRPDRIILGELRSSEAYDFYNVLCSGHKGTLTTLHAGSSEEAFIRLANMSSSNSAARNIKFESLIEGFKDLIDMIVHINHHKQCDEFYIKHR

Molecule	IC50 (VirB11 ATPase HP0525 [1]) [µM]	other results
Cc1ccc(S(=O)(=O)NCCNc2nccn3cc(-c4ccc5ccccc5c4)nc23)cc1 [Compound 31, 4-Methyl-N-(2-(2-(naphthalen-2-yl)imidazo[1,2-a]pyrazin-8-ylamino)ethyl)benzenesulfonamide]	7 ± 2	–
Cc1ccc(S(=O)(=O)Nc2ccc(Nc3nccn4cc(-c5ccccc5Oc5ccccc5)nc34)cc2)cc1 [Compound 13, 4-Methyl-N-(4-(2-(2-phenoxyphenyl)imidazo[1,2-a]pyrazin-8-ylamino)phenyl)benzenesulfonamide]	18 ± 4	–
Cc1ccc(S(=O)(=O)Nc2nccn3cc(-c4ccccc4Oc4ccccc4)nc23)cc1 [Compound 8, 4-methyl-N-[2-(2-phenoxyphenyl)imidazo[1,2-a]pyrazine-8-yl]benzenesulfonamide]	82 ± 14	–
Cc1ccc(S(=O)(=O)Nc2ccc(Nc3nccn4cc(-c5ccc6ccccc6c5)nc34)cc2)cc1 [Compound 11, 4-methyl-N-[4-[[2-(2-naphthyl)imidazo[1,2-a]pyrazine-8-yl]amino]phenyl]benzenesulfonamide]	6 ± 1	mode of inhibition (VirB11 ATPase HP0525 [2]): competitive inhibitor
Nc1nccn2cc(-c3ccc4ccccc4c3)nc12 [Compound 25, 2-(Naphthalen-2-yl)imidazo[1,2-a]pyrazin-8-amine]	> 1000	inhibitory activity in words (VirB11 ATPase HP0525 [1]): complete loss of activity
Cc1ccc(S(=O)(=O)Nc2ccc(Nc3nccn4cc(-c5ccsc5)nc34)cc2)cc1 [Compound 12, 4-methyl-N-[4-[[2-(3-thienyl)imidazo[1,2-a]pyrazine-8-yl]amino]phenyl]benzenesulfonamide]	99 ± 18	–
Cc1ccc(S(=O)(=O)Nc2ccc(Nc3nccn4ccnc34)cc2)cc1 [Compound 35, N-(4-(Imidazo[1,2-a]pyrazin-8-ylamino)phenyl)-4-methylbenzenesulfonamide]	> 1000	inhibitory activity in words (VirB11 ATPase HP0525 [1]): complete loss of activity
N-(4-((6-Bromo-2-(naphthalen-2-yl)imidazo[1,2-a]pyrazin-8-yl)amino)phenyl)-4- methylbenzenesulfonamide [Compound 37]	–	IC50 (VirB11 ATPase HP0525 [1]; [3]): 6 ± 2 µM
O=S(=O)(Nc1cccc(Nc2nccn3cc(-c4ccc5ccccc5c4)nc23)c1)c1cccc2cccnc12 [Compound 34, N-(3-((2-(Naphthalen-2-yl)imidazo[1,2-a]pyrazin-8-yl)amino)phenyl)quinoline-8-sulfonamide]	7 ± 2	–
Cc1ccc(S(=O)(=O)Nc2ccc(Nc3nccn4c(-c5ccsc5)cnc34)cc2)cc1 [Compound 6, 4-methyl-N-[4-[[3-(3-thienyl)imidazo[1,2-a]pyrazine-8-yl]amino]phenyl]benzenesulfonamide]	48 ± 7	–
O=S(=O)(Nc1ccc(Nc2nccn3cc(-c4ccc5ccccc5c4)nc23)cc1)c1cccc2cccnc12 [Compound 33, N-(4-((2-(Naphthalen-2-yl)imidazo[1,2-a]pyrazin-8-yl)amino)phenyl)quinoline-8-sulfonamide]	7 ± 2	–
N-(2-((6-Bromo-2-(naphthalen-2-yl)imidazo[1,2-a]pyrazin-8-yl)amino)ethyl)-4- methylbenzenesulfonamide [Compound 38]	–	IC50 (VirB11 ATPase HP0525 [1]; [3]): 77 ± 20 µM
Cc1ccc(S(=O)(=O)Nc2ccc(CNc3nccn4cc(-c5ccc6ccccc6c5)nc34)cc2)cc1 [Compound 29, 4-Methyl-N-(4-((2-(naphthalen-2-yl)imidazo[1,2-a]pyrazin-8-ylamino)methyl)phenyl)benzenesulfonamide]	75 ± 35	–
Cc1ccc(S(=O)(=O)Nc2nccn3cc(-c4cc(C)cc(C)c4)nc23)cc1 [Compound 10, N-[2-(3,5-dimethylphenyl)imidazo[1,2-a]pyrazine-8-yl]-4-methylbenzenesulfonamide]	133 ± 16	–
COc1ccc(-c2cnc3c(NS(=O)(=O)c4ccc(C)cc4)nccn23)cc1OC [Compound 3, N-[3-(3,4-dimethoxyphenyl)imidazo[1,2-a]pyrazine-8-yl]-4-methyl-benzenesulfonamide]	144 ± 14	–
CS(=O)(=O)Nc1ccc(Nc2nccn3cc(-c4ccc5ccccc5c4)nc23)cc1 [Compound 27, N-(4-(2-(Naphthalen-2-yl)imidazo[1,2-a]pyrazin-8-ylamino)phenyl)methanesulfonamide]	61 ± 28	–
COc1ccc(-c2cn3ccnc(NS(=O)(=O)c4ccc(C)cc4)c3n2)cc1OC [Compound 9, N-[2-(3,4-dimethoxylphenyl)imidazo[1,2-a]pyrazine-8-yl]-4-methyl-benzenesulfonamide]	167 ± 43	–
Cc1ccc(S(=O)(=O)Nc2nccn3c(-c4cc(C)cc(C)c4)cnc23)cc1 [Compound 4]	154 ± 22	–
Nc1ccc(Nc2nccn3cc(-c4ccc5ccccc5c4)nc23)cc1 [Compound 26, N^’-(2-(Naphthalen-2-yl)imidazo[1,2-a]pyrazin-8-yl)benzene-1,4-diamine]	18 ± 5	–
c1cncc(-c2cccc(Nc3nccn4cc(-c5ccc6ccccc6c5)nc34)c2)c1 [Compound 32, 2-(Naphthalen-2-yl)-N-(3-(pyridin-3-yl)phenyl)imidazo[1,2-a]pyrazin-8-amine]	4 ± 1	–
Cc1ccc(S(=O)(=O)Nc2ccc(Oc3nccn4cc(-c5ccc6ccccc6c5)nc34)cc2)cc1 [Compound 28, 4-Methyl-N-(4-(2-(naphthalen-2-yl)imidazo[1,2-a]pyrazin-8-yloxy)phenyl)benzenesulfonamide]	29 ± 9	–
Cc1ccc(S(=O)(=O)NCCCNc2nccn3cc(-c4ccc5ccccc5c4)nc23)cc1 [Compound 30, 4-Methyl-N-(3-(2-(naphthalen-2-yl)imidazo[1,2-a]pyrazin-8-ylamino)propyl)benzenesulfonamide]	58 ± 38	–
Cc1ccc(S(=O)(=O)Nc2nccn3cc(-c4ccc5ccccc5c4)nc23)cc1 [Compound 7, 4-methyl-N-[2-(2-naphthyl)imidazo[1,2-a]pyrazine-8-yl]benzenesulfonamide]	88 ± 14	–
4-methyl-N-[2-(2-naphthyl)imidazo[1,2-a]pyrazine-8-yl]benzenesulfonamide [Compound 1]	–	IC50 (VirB11 ATPase HP0525 [1]; [3]): 77 ± 16 µM
Cc1ccc(S(=O)(=O)Nc2ccc(Nc3nccn4cc(-c5cnc6ccccc6n5)nc34)cc2)cc1 [Compound 36, 4-Methyl-N-(4-(2-(quinoxalin-2-yl)imidazo[1,2-a]pyrazin-8-ylamino)phenyl)benzenesulfonamide]	28 ± 6	–
Cc1ccc(S(=O)(=O)Nc2ccc(Nc3nccn4c(-c5ccc6ccccc6c5)cnc34)cc2)cc1 [Compound 5, 4-methyl-N-[4-[3-(2-naphthyl)imidazo[1,2-a]pyrazine-8-yl]aminophenyl]benzenesulfonamide]	20 ± 3	–
Cc1ccc(S(=O)(=O)Nc2nccn3c(-c4ccccc4Oc4ccccc4)cnc23)cc1 [Compound 2]	96 ± 42	–
